In PMC7561186, “Rational design of balanced dual-targeting antibiotics with limited resistance” (PLoS Biology, 2020):
In brackets after ≈: the same amount, converted by molar mass. Like-named read-outs stand apart in the source and are kept apart here.

Test system: S. aureus clinical isolates
Test: microbe, parasite or virus in culture
Format: cell-based
Settings: Staphylococcus aureus, read-out: MIC

Which results are given for `CC(=O)NC[C@H]1CN(c2ccc(N3CCOCC3)c(F)c2)C(=O)O1` [Linezolid]?
MIC (MRSA, S. aureus IHMA 1621638, MRSA / VSSA): 2 µg/mL (≈ 5.93 µM); MIC (MRSA, S. aureus IHMA 1622252, MRSA / VSSA): 4 µg/mL (≈ 11.9 µM); MIC (MRSA, S. aureus IHMA 1622527, MRSA / VSSA): 4 µg/mL (≈ 11.9 µM); MIC (MRSA, S. aureus IHMA 1666371, MRSA / VSSA): 0.5 µg/mL (≈ 1.48 µM); MIC (MRSA, S. aureus IHMA 1695391, MRSA / VSSA): 2 µg/mL (≈ 5.93 µM); MIC (MRSA, S. aureus IHMA 1703428, MRSA / VSSA): 2 µg/mL (≈ 5.93 µM); MIC (MRSA, S. aureus IHMA 1720350, MRSA / VSSA): 2 µg/mL (≈ 5.93 µM); MIC (MRSA, S. aureus IHMA 1732989, MRSA / VSSA): 4 µg/mL (≈ 11.9 µM); MIC (MRSA, S. aureus IHMA 1742231, MRSA / VSSA): 2 µg/mL (≈ 5.93 µM); MIC (MRSA, S. aureus IHMA 1766357, MRSA / VSSA): 4 µg/mL (≈ 11.9 µM); MIC (MSSA / NRS 12 / VISA, S. aureus IHMA 1308244, NRS12, MSSA / VISA): 4 µg/mL (≈ 11.9 µM); MIC (MSSA / NRS 13 / VISA, S. aureus IHMA 1308245, NRS13, MSSA / VISA): 2 µg/mL (≈ 5.93 µM); MIC (MSSA / NRS 14 / VISA, S. aureus IHMA 1308246, NRS14, MSSA / VISA): 2 µg/mL (≈ 5.93 µM); MIC (MSSA / NRS 17 / VISA, S. aureus IHMA 1308247, NRS17, MSSA / VISA): 2 µg/mL (≈ 5.93 µM); MIC (MSSA / NRS 28 / VISA, S. aureus IHMA 1308249, NRS28, MSSA / VISA): 0.5 µg/mL (≈ 1.48 µM); MIC (MSSA / NRS 52, S. aureus IHMA 1308252, NRS52, MSSA / VSSA* (*Expected VAN intermediate, confirmed VAN susceptible twice), test date 2018-11-07): 1 µg/mL (≈ 2.96 µM); MIC (MSSA / USA100 / VRSA, S. aureus IHMA 672236, VRS6, MSSA / VRSA, USA100): 1 µg/mL (≈ 2.96 µM); MIC (MSSA, S. aureus IHMA 1563826, MSSA / VSSA): 4 µg/mL (≈ 11.9 µM); MIC (MSSA, S. aureus IHMA 1565492, MSSA / VSSA): 2 µg/mL (≈ 5.93 µM); MIC (MSSA, S. aureus IHMA 1569499, MSSA / VSSA): 2 µg/mL (≈ 5.93 µM); MIC (MSSA, S. aureus IHMA 1569754, MSSA / VSSA): 2 µg/mL (≈ 5.93 µM); MIC (MSSA, S. aureus IHMA 1574202, MSSA / VSSA): 2 µg/mL (≈ 5.93 µM); MIC (MSSA, S. aureus IHMA 1575652, MSSA / VSSA): 4 µg/mL (≈ 11.9 µM); MIC (MSSA, S. aureus IHMA 1575779, MSSA / VSSA): 2 µg/mL (≈ 5.93 µM); MIC (MSSA, S. aureus IHMA 1576329, MSSA / VSSA): 4 µg/mL (≈ 11.9 µM); MIC (MSSA, S. aureus IHMA 1577800, MSSA / VSSA): 4 µg/mL (≈ 11.9 µM); MIC (MSSA, S. aureus IHMA 1578560, MSSA / VSSA): 4 µg/mL (≈ 11.9 µM); MIC (MSSA, S. aureus IHMA 1580233, MSSA / VSSA): 2 µg/mL (≈ 5.93 µM); MIC (MSSA, S. aureus IHMA 1580925, MSSA / VSSA): 2 µg/mL (≈ 5.93 µM); MIC (MSSA, S. aureus IHMA 1580955, MSSA / VSSA): 2 µg/mL (≈ 5.93 µM); MIC (MSSA, S. aureus IHMA 1582586, MSSA / VSSA): 8 µg/mL (≈ 23.7 µM); MIC (MSSA, S. aureus IHMA 1582691, MSSA / VSSA): 2 µg/mL (≈ 5.93 µM); MIC (MSSA, S. aureus IHMA 1584230, MSSA / VSSA): 4 µg/mL (≈ 11.9 µM); MIC (MSSA, S. aureus IHMA 1587279, MSSA / VSSA): 1 µg/mL (≈ 2.96 µM); MIC (MSSA, S. aureus IHMA 1591459, MSSA / VSSA): 2 µg/mL (≈ 5.93 µM); MIC (MSSA, S. aureus IHMA 1592749, MSSA / VSSA): 2 µg/mL (≈ 5.93 µM); MIC (MSSA, S. aureus IHMA 1592751, MSSA / VSSA): 4 µg/mL (≈ 11.9 µM); MIC (MSSA, S. aureus IHMA 1594297, MSSA / VSSA): 2 µg/mL (≈ 5.93 µM); MIC (MSSA, S. aureus IHMA 1597120, MSSA / VSSA): 4 µg/mL (≈ 11.9 µM); MIC (MSSA, S. aureus IHMA 1597125, MSSA / VSSA): 2 µg/mL (≈ 5.93 µM); MIC (MSSA, S. aureus IHMA 1599157, MSSA / VSSA): 2 µg/mL (≈ 5.93 µM); MIC (MSSA, S. aureus IHMA 1599506, MSSA / VSSA): 4 µg/mL (≈ 11.9 µM); MIC (MSSA, S. aureus IHMA 1602078, MSSA / VSSA): 4 µg/mL (≈ 11.9 µM); MIC (MSSA, S. aureus IHMA 1604586, MSSA / VSSA): 2 µg/mL (≈ 5.93 µM); MIC (MSSA, S. aureus IHMA 1604609, MSSA / VSSA): 2 µg/mL (≈ 5.93 µM); MIC (MSSA, S. aureus IHMA 1609919, MSSA / VSSA): 2 µg/mL (≈ 5.93 µM); MIC (MSSA, S. aureus IHMA 1622864, MSSA / VSSA): 2 µg/mL (≈ 5.93 µM); MIC (MSSA, S. aureus IHMA 1626392, MSSA / VSSA): 2 µg/mL (≈ 5.93 µM); MIC (MSSA, S. aureus IHMA 1713793, MSSA / VSSA): 2 µg/mL (≈ 5.93 µM)
